Patent US20250084060A1, “PRMT5 INHIBITORS AND METHODS OF TREATMENT” (HANGZHOU UNOGEN BIOTECH, LTD., priority 2022, published 2025)

Each molecule was assayed against PRMT5 (Homo sapiens (Human), UniProt O14744) (assay: PRMT5 Chemiluminescent Assay). Conditions: PRMT5 chemiluminescent assay kit (BPS Bioscience), histone H4 peptide substrate, eight-point dose response.
Assay type: biochemical
Description: The PRMT5 activity is measured by using “PRMT5 Chemiluminescent Assay Kit” from BPS Bioscience, Catalog Number 52002L as per the instructions of the manufacturer. Briefly, the PRMT5 enzyme is incubated with S-adenosylmethionine in a 96-well plate precoated with histone H4 peptide substrate. Next, a highly specific antibody that recognizes methylated R3 residue of Histone H4 is added followed by a horseradkish peroxidase-labeled (HRP-labeled) secondary antibody. Detection is done by the addition of the HRP substrate to produce chemiluminescence that can be measured quantitatively.
Compounds were serially diluted 3-fold and dosed from 10 uM down to 0 uM. Compounds were tested in duplicates to generate an eight-point dose response for the calculation of their IC50s.

PRMT5, sequence (O14744 2-637): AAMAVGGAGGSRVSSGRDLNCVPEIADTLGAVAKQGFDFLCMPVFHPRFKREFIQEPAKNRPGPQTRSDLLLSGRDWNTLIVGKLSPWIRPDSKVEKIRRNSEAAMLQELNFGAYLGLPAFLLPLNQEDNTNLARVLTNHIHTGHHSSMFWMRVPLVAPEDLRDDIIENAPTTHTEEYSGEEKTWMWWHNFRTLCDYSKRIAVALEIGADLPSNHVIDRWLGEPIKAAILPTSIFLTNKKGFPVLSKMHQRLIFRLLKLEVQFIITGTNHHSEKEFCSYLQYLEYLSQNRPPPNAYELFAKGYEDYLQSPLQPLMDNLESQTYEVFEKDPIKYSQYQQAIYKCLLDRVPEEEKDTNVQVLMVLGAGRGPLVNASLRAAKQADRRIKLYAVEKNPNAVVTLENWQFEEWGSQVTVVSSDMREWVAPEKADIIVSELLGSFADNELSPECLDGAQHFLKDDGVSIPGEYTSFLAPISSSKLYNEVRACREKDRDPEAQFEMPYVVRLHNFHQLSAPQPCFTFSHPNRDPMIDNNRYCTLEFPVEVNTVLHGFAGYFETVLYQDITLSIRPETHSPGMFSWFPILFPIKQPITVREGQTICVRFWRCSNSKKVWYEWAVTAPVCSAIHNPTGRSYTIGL
PRMT5, sequence (Q9BQA1 2-342 partner): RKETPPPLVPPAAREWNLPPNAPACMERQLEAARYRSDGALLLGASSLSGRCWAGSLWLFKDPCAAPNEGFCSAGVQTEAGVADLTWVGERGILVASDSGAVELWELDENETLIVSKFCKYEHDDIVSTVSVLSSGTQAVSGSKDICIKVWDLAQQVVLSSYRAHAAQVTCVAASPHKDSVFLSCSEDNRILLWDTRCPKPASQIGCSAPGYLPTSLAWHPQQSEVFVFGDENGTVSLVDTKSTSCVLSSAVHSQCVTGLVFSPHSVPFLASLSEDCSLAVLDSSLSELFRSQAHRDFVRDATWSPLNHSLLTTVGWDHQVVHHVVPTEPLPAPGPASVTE

Row | IC50 [nM] | Compound
1 | 698 | Cn1c(=O)n(CC(O)CN2CCc3ccccc3C2)c(=O)c2ccccc21 (stereo not shown) [Compound 63, 3-[3-(3,4-dihydro-1H-isoquinolin-2-yl)-2-hydroxy-propyl]-1-methyl-quinazoline-2,4-dione]
2 | 518 | COCCn1c(=O)n(CC(O)CN2CCc3ccccc3C2)c(=O)c2ccccc21 (stereo not shown) [Compound 65, 3-[3-(3,4-dihydro-1H-isoquinolin-2-yl)-2-hydroxy-propyl]-1-(2-methoxyethyl)quinazoline-2,4-dione]
3 | 121 | O=c1c2ccccc2n(CC2CC2(F)F)c(=O)n1C[C@H](O)CN1CCc2ccccc2C1 (stereo partly drawn) [Compound 90, 1-[(2,2-difluorocyclopropyl)methyl]-3-[(2R)-3-(3,4-dihydro-1H-isoquinolin-2-yl)-2-hydroxy-propyl]quinazoline-2,4-dione]
4 | 58 | COc1ccc2c(c1)c(=O)n(C[C@H](O)CN1CCc3ccccc3C1)c(=O)n2CC1CC1 [Compound 87, 1-(cyclopropylmethyl)-3-[(2R)-3-(3,4-dihydro-1H-isoquinolin-2-yl)-2-hydroxy-propyl]-6-methoxy-quinazoline-2,4-dione]
5 | 903 | O=c1c2ccccc2n(CC2CCOCC2)c(=O)n1CC(O)CN1CCc2ccccc2C1 (stereo not shown) [Compound 105, 3-[3-(3,4-dihydro-1H-isoquinolin-2-yl)-2-hydroxy-propyl]-1-(tetrahydropyran-4-ylmethyl)quinazoline-2,4-dione]
6 | 14 | CC(C)Cn1c(=O)n(C[C@H](O)CN2CCc3ccccc3C2)c(=O)c2ccc(Cl)cc21 [Compound 73, 7-chloro-3-[(2R)-3-(3,4-dihydro-1H-isoquinolin-2-yl)-2-hydroxy-propyl]-1-isobutyl-quinazoline-2,4-dione]
7 | 126 | CC(C)Cn1c(=O)n(C[C@H](O)CN2CCc3ccccc3C2)c(=O)c2cc(Cl)ccc21 [Compound 69, 6-chloro-3-[(2R)-3-(3,4-dihydro-1H-isoquinolin-2-yl)-2-hydroxy-propyl]-1-isobutyl-quinazoline-2,4-dione]
8 | 35 | COc1ccc2c(=O)n(C[C@H](O)CN3CCc4ccccc4C3)c(=O)n(CC3CC3)c2c1 [Compound 84, 1-(cyclopropylmethyl)-3-[(2R)-3-(3,4-dihydro-1H-isoquinolin-2-yl)-2-hydroxy-propyl]-7-methoxy-quinazoline-2,4-dione]
9 | 840 | O=c1[nH]c2ccc(O)cc2c(=O)n1C[C@H](O)CN1CCc2ccccc2C1 [Compound 83, 3-[(2R)-3-(3,4-dihydro-1H-isoquinolin-2-yl)-2-hydroxy-propyl]-6-hydroxy-1H-quinazoline-2,4-dione]
10 | 9410 | COc1ccc(Cn2c(=O)c3ccccc3n(CC(O)CN3CCc4ccccc4C3)c2=O)cc1 (stereo not shown) [Compound 97, 1-[3-(3,4-dihydro-1H-isoquinolin-2-yl)-2-hydroxy-propyl]-3-[(4-methoxyphenyl)methyl]quinazoline-2,4-dione]
11 | 360 | O=c1[nH]c2ccccc2c(=O)n1C[C@H](O)CN1CCc2ccccc2C1 [Compound 64, 3-[(2R)-3-(3,4-dihydro-1H-isoquinolin-2-yl)-2-hydroxy-propyl]-1H-quinazoline-2,4-dione]
12 | 63 | O=c1c2cc(F)ccc2n(CC2CC2)c(=O)n1C[C@H](O)CN1CCc2ccccc2C1 [Compound 77, 1-(cyclopropylmethyl)-3-[(2R)-3-(3,4-dihydro-1H-isoquinolin-2-yl)-2-hydroxy-propyl]-6-fluoro-quinazoline-2,4-dione]
13 | 159 | CC(C)Cn1c(=O)n(C[C@H](O)CN2CCc3ccccc3C2)c(=O)c2cc(Br)ccc21 [Compound 71, 6-bromo-3-[(2R)-3-(3,4-dihydro-1H-isoquinolin-2-yl)-2-hydroxy-propyl]-1-isobutyl-quinazoline-2,4-dione]
14 | 176 | O=c1[nH]c2ccc(F)cc2c(=O)n1C[C@H](O)CN1CCc2ccccc2C1 [Compound 66, 3-[(2R)-3-(3,4-dihydro-1H-isoquinolin-2-yl)-2-hydroxy-propyl]-6-fluoro-1H-quinazoline-2,4-dione]
15 | 29 | Cc1cccc2c1c(=O)n(C[C@H](O)CN1CCc3ccccc3C1)c(=O)n2CC1CC1 [Compound 85, 1-(cyclopropylmethyl)-3-[(2R)-3-(3,4-dihydro-1H-isoquinolin-2-yl)-2-hydroxy-propyl]-5-methyl-quinazoline-2,4-dione]
16 | 159 | COc1ccc2[nH]c(=O)n(C[C@H](O)CN3CCc4ccccc4C3)c(=O)c2c1 [Compound 81, 3-[(2R)-3-(3,4-dihydro-1H-isoquinolin-2-yl)-2-hydroxy-propyl]-6-methoxy-1H-quinazoline-2,4-dione]
17 | 57 | CC(C)Cn1c(=O)n(C[C@H](O)CN2CCc3ccccc3C2)c(=O)c2cc(-c3ccc(F)cc3)ccc21 [Compound 76, 3-[(2R)-3-(3,4-dihydro-1H-isoquinolin-2-yl)-2-hydroxy-propyl]-6-(4-fluorophenyl)-1-isobutyl-quinazoline-2,4-dione]

Row | IC50 [nM] | Compound
18 | 35 | O=c1c2ccc(-c3cccnc3)cc2n(CC2CC2)c(=O)n1C[C@H](O)CN1CCc2ccccc2C1 [Compound 86, 1-(cyclopropylmethyl)-3-[(2R)-3-(3,4-dihydro-1H-isoquinolin-2-yl)-2-hydroxy-propyl]-7-(3-pyridyl)quinazoline-2,4-dione]
19 | 41 | O=c1c2c(F)cccc2n(CC2CC2)c(=O)n1C[C@H](O)CN1CCc2ccccc2C1 [Compound 89, 1-(cyclopropylmethyl)-3-[(2R)-3-(3,4-dihydro-1H-isoquinolin-2-yl)-2-hydroxy-propyl]-5-fluoro-quinazoline-2,4-dione]
20 | 24 | O=c1[nH]c2cc(Br)ccc2c(=O)n1C[C@H](O)CN1CCc2ccccc2C1 [Compound 75, 7-bromo-3-[(2R)-3-(3,4-dihydro-1H-isoquinolin-2-yl)-2-hydroxy-propyl]-1H-quinazoline-2,4-dione]
21 | 13400 | O=c1[nH]c2ccccc2c(=O)n1C[C@@H](O)CN1CCc2ccccc2C1 [Compound 62, 3-[(2S)-3-(3,4-dihydro-1H-isoquinolin-2-yl)-2-hydroxy-propyl]-1H-quinazoline-2,4-dione]
22 | 4490 | CC(C)Cn1c(=O)n(C[C@@H](O)CN2CCc3ccccc3C2)c(=O)c2ccccc21 [Compound 101, 3-[(2S)-3-(3,4-dihydro-1H-isoquinolin-2-yl)-2-hydroxy-propyl]-1-isobutyl-quinazoline-2,4-dione]
23 | 178 | CC(C)Cn1c(=O)n(CC(O)CN2CCc3ccccc3C2)c(=O)c2ccccc21 (stereo not shown) [Compound 98, 3-[3-(3,4-dihydro-1H-isoquinolin-2-yl)-2-hydroxy-propyl]-1-isobutyl-quinazoline-2,4-dione]
24 | 21 | Cc1ccc2c(c1)c(=O)n(C[C@H](O)CN1CCc3ccccc3C1)c(=O)n2CC1CC1 [Compound 88, 1-(cyclopropylmethyl)-3-[(2R)-3-(3,4-dihydro-1H-isoquinolin-2-yl)-2-hydroxy-propyl]-6-methyl-quinazoline-2,4-dione]
25 | 876 | O=c1[nH]c2ccccc2c(=O)n1CC(O)CN1CCc2ccccc2C1 (stereo not shown) [Compound 61, 3-[3-(3,4-dihydro-1H-isoquinolin-2-yl)-2-hydroxy-propyl]-1H-quinazoline-2,4-dione]
26 | 122 | O=c1c2ccccc2n(CCCC(F)(F)F)c(=O)n1C[C@H](O)CN1CCc2ccccc2C1 [Compound 93, 3-[(2R)-3-(3,4-dihydro-1H-isoquinolin-2-yl)-2-hydroxy-propyl]-1-(4,4,4-trifluorobutyl)quinazoline-2,4-dione]
27 | 66 | COc1ccc2c(=O)n(C[C@H](O)CN3CCc4ccccc4C3)c(=O)[nH]c2c1 [Compound 82, 3-[(2R)-3-(3,4-dihydro-1H-isoquinolin-2-yl)-2-hydroxy-propyl]-7-methoxy-1H-quinazoline-2,4-dione]
28 | 33 | O=c1[nH]c2cc(Cl)ccc2c(=O)n1C[C@H](O)CN1CCc2ccccc2C1 [Compound 68, 7-chloro-3-[(2R)-3-(3,4-dihydro-1H-isoquinolin-2-yl)-2-hydroxy-propyl]-1H-quinazoline-2,4-dione]
29 | 216 | O=c1[nH]c2ccc(Cl)cc2c(=O)n1C[C@H](O)CN1CCc2ccccc2C1 [Compound 67, 6-chloro-3-[(2R)-3-(3,4-dihydro-1H-isoquinolin-2-yl)-2-hydroxy-propyl]-1H-quinazoline-2,4-dione]
30 | 779 | N#Cc1ccc(Cn2c(=O)n(CC(O)CN3CCc4ccccc4C3)c(=O)c3ccccc32)cc1 (stereo not shown) [Compound 100, 4-[[3-[3-(3,4-dihydro-1H-isoquinolin-2-yl)-2-hydroxy-propyl]-2,4-dioxo-quinazolin-1-yl]methyl]benzonitrile]
31 | 70 | CC(C)Cn1c(=O)n(C[C@H](O)CN2CCc3ccccc3C2)c(=O)c2cc(F)ccc21 [Compound 72, 3-[(2R)-3-(3,4-dihydro-1H-isoquinolin-2-yl)-2-hydroxy-propyl]-6-fluoro-1-isobutyl-quinazoline-2,4-dione]
32 | 71 | CC(C)Cn1c(=O)n(C[C@H](O)CN2CCc3ccccc3C2)c(=O)c2ccccc21 [Compound 102, 3-[(2R)-3-(3,4-dihydro-1H-isoquinolin-2-yl)-2-hydroxy-propyl]-1-isobutyl-quinazoline-2,4-dione]
33 | 1060 | O=c1c2ccccc2n(Cc2ccc(Cl)cc2)c(=O)n1C[C@H](O)CN1CCc2ccccc2C1 (stereo in doubt) [Compound 96, 1-[(4-chlorophenyl)methyl]-3-[3-(3,4-dihydro-1H-isoquinolin-2-yl)-2-hydroxy-propyl]quinazoline-2,4-dione]
34 | 164 | O=c1c2ccccc2n(CC2CC(F)(F)C2)c(=O)n1C[C@H](O)CN1CCc2ccccc2C1 [Compound 95, 1-[(3,3-difluorocyclobutyl)methyl]-3-[(2R)-3-(3,4-dihydro-1H-isoquinolin-2-yl)-2-hydroxy-propyl]quinazoline-2,4-dione]
